Results reported in patent publication US12077503B2, “Substituted cyclic amides and their use as herbicides” (FMC CORPORATION, priority 2015, dated 2024).

Experiments:
Format in all cases: in vivo
corn (Zea mays) [1] = assay: Test G Pre-Emergence Protocol; settings: Zea mays, pre-emergence, 312 h, evaluated after 13 days; for plant injury at 15.625 g/ha: 15.625 g ai/ha; for plant injury at 15.625 g/ha / plant injury at 250 g/ha: read-out: Corn damage rating (100=total damage to plant; 0=no damage to plant); for plant injury at 62.5 g/ha: 62.5 g ai/ha, 100=total damage to plant, 0=no damage to plant, read-out: Corn damage rating; for plant injury at 250 g/ha: 250 g ai/ha
Summary of the method: (§1)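 Under a 24/16° C day/night regime with 14 h light and 65% humidity, sown pots were sprayed after one day with compound (15.625, 62.5 or 250 g/ha; 50:50 acetone/water, 0.5% Tween 20). Damage was assessed visually 13 days later, 0 to 100.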

[2] = test system: barnyardgrass (Echinochloa crus-galli); assay: Test G Pre-Emergence Protocol; settings: Echinochloa crus-galli, pre-emergence, 312 h, evaluated after 13 days; for pest or weed control at 15.625 g/ha: 15.625 g ai/ha; for pest or weed control at 15.625 g/ha / pest or weed control at 250 g/ha: read-out: Barnyardgrass damage rating (100=total damage to plant; 0=no damage to plant); for pest or weed control at 62.5 g/ha: 62.5 g ai/ha, 100=total damage to plant, 0=no damage to plant, read-out: Barnyardgrass damage rating; for pest or weed control at 250 g/ha: 250 g ai/ha
Summary of the method: as §1

[3] = test system: redroot pigweed (Amaranthus retroflexus); assay: Test G Pre-Emergence Protocol; settings: Amaranthus retroflexus, pre-emergence, 312 h, evaluated after 13 days; for pest or weed control at 15.625 g/ha: 15.625 g ai/ha; for pest or weed control at 15.625 g/ha / pest or weed control at 250 g/ha: read-out: Pigweed, Redroot damage rating (100=total damage to plant; 0=no damage to plant); for pest or weed control at 62.5 g/ha: 62.5 g ai/ha, 100=total damage to plant, 0=no damage to plant, read-out: Pigweed, Redroot damage rating; for pest or weed control at 250 g/ha: 250 g ai/ha
Summary of the method: as §1

[4] = test system: velvetleaf (Abutilon theophrasti); assay: Test G Pre-Emergence Protocol; settings: Abutilon theophrasti, pre-emergence, 312 h, evaluated after 13 days; for pest or weed control at 15.625 g/ha: 15.625 g ai/ha; for pest or weed control at 15.625 g/ha / pest or weed control at 250 g/ha: read-out: Velvetleaf damage rating (100=total damage to plant; 0=no damage to plant); for pest or weed control at 62.5 g/ha: 62.5 g ai/ha, 100=total damage to plant, 0=no damage to plant, read-out: Velvetleaf damage rating; for pest or weed control at 250 g/ha: 250 g ai/ha
Summary of the method: as §1

[5] = test system: ivy-leaved morning glory (Ipomoea hederacea); assay: Test G Pre-Emergence Protocol; settings: Ipomoea, pre-emergence, 312 h, evaluated after 13 days; for pest or weed control at 15.625 g/ha: 15.625 g ai/ha; for pest or weed control at 15.625 g/ha / pest or weed control at 250 g/ha: read-out: Morningglory, Ivy-leaved damage rating (100=total damage to plant; 0=no damage to plant); for pest or weed control at 62.5 g/ha: 62.5 g ai/ha, 100=total damage to plant, 0=no damage to plant, read-out: Morningglory, Ivy-leaved damage rating; for pest or weed control at 250 g/ha: 250 g ai/ha
Summary of the method: as §1

[6] = test system: giant foxtail (Setaria faberi); assay: Test G Pre-Emergence Protocol; settings: Setaria faberi, pre-emergence, 312 h, evaluated after 13 days; for pest or weed control at 15.625 g/ha: 15.625 g ai/ha; for pest or weed control at 15.625 g/ha / pest or weed control at 250 g/ha: read-out: Foxtail, Giant damage rating (100=total damage to plant; 0=no damage to plant); for pest or weed control at 62.5 g/ha: 62.5 g ai/ha, 100=total damage to plant, 0=no damage to plant, read-out: Foxtail, Giant damage rating; for pest or weed control at 250 g/ha: 250 g ai/ha
Summary of the method: as §1

corn (Zea mays) [7] = assay: Test G Post-Emergence Protocol; settings: Zea mays, post-emergence, 312 h, read-out: Corn damage rating; for plant injury at 15.625 g/ha: 15.625 g ai/ha, evaluated after 13 days (100=total damage to plant; 0=no damage to plant); for plant injury at 62.5 g/ha: 62.5 g ai/ha; for plant injury at 62.5 g/ha / plant injury at 250 g/ha: evaluated after 13 days, 100=total damage to plant, 0=no damage to plant; for plant injury at 250 g/ha: 250 g ai/ha
Summary of the method: (§2)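 Pot-grown seedlings, 8 days old, raised in a glasshouse at 24/16 °C day/night with 14 h light and 65% humidity, were sprayed post-emergence with test compound in acetone/water (50:50) plus 0.5% Tween 20 at 15.625, 62.5 or 250 g/ha. Damage was scored visually 13 days later on a 0–100 scale (100 = total damage).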

[8] = test system: barnyardgrass (Echinochloa crus-galli); assay: Test G Post-Emergence Protocol; settings: Echinochloa crus-galli, post-emergence, 312 h, read-out: Barnyardgrass damage rating; for pest or weed control at 15.625 g/ha: 15.625 g ai/ha, evaluated after 13 days (100=total damage to plant; 0=no damage to plant); for pest or weed control at 62.5 g/ha: 62.5 g ai/ha; for pest or weed control at 62.5 g/ha / pest or weed control at 250 g/ha: evaluated after 13 days, 100=total damage to plant, 0=no damage to plant; for pest or weed control at 250 g/ha: 250 g ai/ha
Summary of the method: as §2

[9] = test system: redroot pigweed (Amaranthus retroflexus); assay: Test G Post-Emergence Protocol; settings: Amaranthus retroflexus, post-emergence, 312 h, read-out: Pigweed, Redroot damage rating; for pest or weed control at 15.625 g/ha: 15.625 g ai/ha, evaluated after 13 days (100=total damage to plant; 0=no damage to plant); for pest or weed control at 62.5 g/ha: 62.5 g ai/ha; for pest or weed control at 62.5 g/ha / pest or weed control at 250 g/ha: evaluated after 13 days, 100=total damage to plant, 0=no damage to plant; for pest or weed control at 250 g/ha: 250 g ai/ha
Summary of the method: as §2

[10] = test system: velvetleaf (Abutilon theophrasti); assay: Test G Post-Emergence Protocol; settings: Abutilon theophrasti, post-emergence, 312 h, read-out: Velvetleaf damage rating; for pest or weed control at 15.625 g/ha: 15.625 g ai/ha, evaluated after 13 days (100=total damage to plant; 0=no damage to plant); for pest or weed control at 62.5 g/ha: 62.5 g ai/ha; for pest or weed control at 62.5 g/ha / pest or weed control at 250 g/ha: evaluated after 13 days, 100=total damage to plant, 0=no damage to plant; for pest or weed control at 250 g/ha: 250 g ai/ha
Summary of the method: as §2

[11] = test system: ivy-leaved morning glory (Ipomoea hederacea); assay: Test G Post-Emergence Protocol; settings: Ipomoea, post-emergence, 312 h, read-out: Morningglory, Ivy-leaved damage rating; for pest or weed control at 15.625 g/ha: 15.625 g ai/ha, evaluated after 13 days (100=total damage to plant; 0=no damage to plant); for pest or weed control at 62.5 g/ha: 62.5 g ai/ha; for pest or weed control at 62.5 g/ha / pest or weed control at 250 g/ha: evaluated after 13 days, 100=total damage to plant, 0=no damage to plant; for pest or weed control at 250 g/ha: 250 g ai/ha
Summary of the method: as §2

[12] = test system: giant foxtail (Setaria faberi); assay: Test G Post-Emergence Protocol; settings: Setaria faberi, post-emergence, 312 h, read-out: Foxtail, Giant damage rating; for pest or weed control at 15.625 g/ha: 15.625 g ai/ha, evaluated after 13 days (100=total damage to plant; 0=no damage to plant); for pest or weed control at 62.5 g/ha: 62.5 g ai/ha; for pest or weed control at 62.5 g/ha / pest or weed control at 250 g/ha: evaluated after 13 days, 100=total damage to plant, 0=no damage to plant; for pest or weed control at 250 g/ha: 250 g ai/ha
Summary of the method: as §2

Compound	plant injury at 15.625 g/ha (corn (Zea mays) [1])	plant injury at 62.5 g/ha (corn (Zea mays) [1])	plant injury at 250 g/ha (corn (Zea mays) [1])	pest or weed control at 15.625 g/ha [2]	pest or weed control at 62.5 g/ha [2]	pest or weed control at 250 g/ha [2]	pest or weed control at 15.625 g/ha [3]	pest or weed control at 62.5 g/ha [3]	pest or weed control at 250 g/ha [3]	pest or weed control at 15.625 g/ha [4]	pest or weed control at 62.5 g/ha [4]	pest or weed control at 250 g/ha [4]	pest or weed control at 15.625 g/ha [5]	pest or weed control at 62.5 g/ha [5]	pest or weed control at 250 g/ha [5]	pest or weed control at 15.625 g/ha [6]	pest or weed control at 62.5 g/ha [6]	pest or weed control at 250 g/ha [6]	plant injury at 15.625 g/ha (corn (Zea mays) [7])	plant injury at 62.5 g/ha (corn (Zea mays) [7])	also measured
CN1C[C@H](c2ccc(C(F)(F)F)cc2)[C@@H](C(=O)Nc2cnccc2[N+](=O)[O-])C1=O (racemic) [Compound 1729]	0%	0%	0%	0%	0%	0%	0%	0%	0%	0%	0%	0%	0%	0%	0%	0%	0%	0%	0%	0%	plant injury at 250 g/ha (corn (Zea mays) [7]): 0%; pest or weed control at 15.625 g/ha [8]: 0%; pest or weed control at 62.5 g/ha [8]: 0%; pest or weed control at 250 g/ha [8]: 0%; pest or weed control at 15.625 g/ha [9]: 0%; pest or weed control at 62.5 g/ha [9]: 0%; pest or weed control at 250 g/ha [9]: 0%; pest or weed control at 15.625 g/ha [10]: 0%; pest or weed control at 62.5 g/ha [10]: 0%; pest or weed control at 250 g/ha [10]: 0%; pest or weed control at 15.625 g/ha [11]: 0%; pest or weed control at 62.5 g/ha [11]: 0%; pest or weed control at 250 g/ha [11]: 0%; pest or weed control at 15.625 g/ha [12]: 0%; pest or weed control at 62.5 g/ha [12]: 0%; pest or weed control at 250 g/ha [12]: 0%
CC(C)OC(=O)c1cc([C@H]2CN(C)C(=O)[C@@H]2C(=O)Nc2ccccc2F)ccc1F (racemic) [Compound 1730]	0%	0%	0%	0%	10%	70%	0%	0%	0%	0%	0%	0%	0%	0%	0%	20%	50%	90%	0%	0%	plant injury at 250 g/ha (corn (Zea mays) [7]): 0%; pest or weed control at 15.625 g/ha [8]: 0%; pest or weed control at 62.5 g/ha [8]: 40%; pest or weed control at 250 g/ha [8]: 80%; pest or weed control at 15.625 g/ha [9]: 0%; pest or weed control at 62.5 g/ha [9]: 0%; pest or weed control at 250 g/ha [9]: 0%; pest or weed control at 15.625 g/ha [10]: 0%; pest or weed control at 62.5 g/ha [10]: 0%; pest or weed control at 250 g/ha [10]: 0%; pest or weed control at 15.625 g/ha [11]: 0%; pest or weed control at 62.5 g/ha [11]: 0%; pest or weed control at 250 g/ha [11]: 0%; pest or weed control at 15.625 g/ha [12]: 0%; pest or weed control at 62.5 g/ha [12]: 20%; pest or weed control at 250 g/ha [12]: 80%
